# Literature values as cited in patent US6132722A, “Recombinant antibody-enzyme fusion proteins” (Bristol-Myers Squibb Company, priority 1998, dated 2000).
# Test system: 3677 melanoma xenografts
# Conditions: drug alone, Kerr et al. 1995
structure (smiles),measurement,value
COc1cccc2c1C(=O)c1c(O)c3c(c(O)c1C2=O)C[C@@](O)(C(=O)CO)C[C@@H]3O[C@H]1C[C@H](N)[C@H](O)[C@H](C)O1 [doxorubicin],response of the 3677 tumor model to treatment,resistant
